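Growth conditions: 96-well plates. Treatment: test compound, 48 hours, 5 concentrations. Analysis: linear interpolation between bracketing concentrations; unreached endpoints set to highest concentration. Abbreviation: GI50, concentration required for 50% inhibition of growth. TGI: total growth inhibition.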
tested on: SF-295 CNS; test: NCI tumour cell line growth inhibition, 48 h

| Structure (SMILES) | GI50 [µM] | TGI [µM] |
| --- | --- | --- |
| COc1cc(C2=NOC(c3cc(OC)c(OC)c(OC)c3)C2)ccc1OCCCCOc1cc2c(cc1OC)C(=O)N1CCC[C@H]1C=N2 (stereo not given in full) | 0.327 | 1.28 |
| N#Cc1ccc(NC(=O)Nc2ccc(Oc3ccc(NC(=O)Nc4ccc(C#N)cc4)cc3)cc2)cc1 | 0.379 | 13.6 |
| Nc1cc(N)c2nc(-c3ccccc3)c(Nc3ccc(Cl)c(Cl)c3)nc2c1 | 12.4 | 27.9 |
| O=C(Cc1ccccc1)NN1C(=O)/C(=C\c2ccc([N+](=O)[O-])cc2)SC1=Nc1ccccc1 | – | > 100 |

tested on: SNB-75 CNS; test: NCI tumour cell line growth inhibition, 48 h

| Structure (SMILES) | GI50 [µM] | TGI [µM] |
| --- | --- | --- |
| COc1cc(C2=NOC(c3cc(OC)c(OC)c(OC)c3)C2)ccc1OCCCCOc1cc2c(cc1OC)C(=O)N1CCC[C@H]1C=N2 (stereo not given in full) | 0.35 | 1.6 |
| N#Cc1ccc(NC(=O)Nc2ccc(Oc3ccc(NC(=O)Nc4ccc(C#N)cc4)cc3)cc2)cc1 | 4.14 | 24.4 |
| COc1ccc(-c2c(C#N)c(N)nc3c2CCS(=O)(=O)c2ccccc2-3)cc1 | – | > 100 |
| O=C(Cc1ccccc1)NN1C(=O)/C(=C\c2ccc([N+](=O)[O-])cc2)SC1=Nc1ccccc1 | – | > 100 |

tested on: SK-MEL-28 melanoma; test: NCI tumour cell line growth inhibition, 48 h

| Structure (SMILES) | GI50 [µM] | TGI [µM] |
| --- | --- | --- |
| COc1cc(C2=NOC(c3cc(OC)c(OC)c(OC)c3)C2)ccc1OCCCCOc1cc2c(cc1OC)C(=O)N1CCC[C@H]1C=N2 (stereo not given in full) | 0.229 | 0.49 |
| N#Cc1ccc(NC(=O)Nc2ccc(Oc3ccc(NC(=O)Nc4ccc(C#N)cc4)cc3)cc2)cc1 | 79.2 | > 100 |
| COc1ccc(-c2c(C#N)c(N)nc3c2CCS(=O)(=O)c2ccccc2-3)cc1 | – | > 100 |
| Nc1cc(N)c2nc(-c3ccccc3)c(Nc3ccc(Cl)c(Cl)c3)nc2c1 | 16.1 | 44.2 |
| O=C(Cc1ccccc1)NN1C(=O)/C(=C\c2ccc([N+](=O)[O-])cc2)SC1=Nc1ccccc1 | – | > 100 |

tested on: NCI-H23 lung; test: NCI tumour cell line growth inhibition, 48 h

| Structure (SMILES) | GI50 [µM] | TGI [µM] |
| --- | --- | --- |
| COc1cc(C2=NOC(c3cc(OC)c(OC)c(OC)c3)C2)ccc1OCCCCOc1cc2c(cc1OC)C(=O)N1CCC[C@H]1C=N2 (stereo not given in full) | 0.241 | 0.559 |
| N#Cc1ccc(NC(=O)Nc2ccc(Oc3ccc(NC(=O)Nc4ccc(C#N)cc4)cc3)cc2)cc1 | 6.53 | 56.5 |
| COc1ccc(-c2c(C#N)c(N)nc3c2CCS(=O)(=O)c2ccccc2-3)cc1 | – | > 100 |
| Nc1cc(N)c2nc(-c3ccccc3)c(Nc3ccc(Cl)c(Cl)c3)nc2c1 | 19.1 | 55.2 |
| O=C(Cc1ccccc1)NN1C(=O)/C(=C\c2ccc([N+](=O)[O-])cc2)SC1=Nc1ccccc1 | – | > 100 |

tested on: HCC-2998 colon; test: NCI tumour cell line growth inhibition, 48 h

| Structure (SMILES) | GI50 [µM] | TGI [µM] |
| --- | --- | --- |
| COc1cc(C2=NOC(c3cc(OC)c(OC)c(OC)c3)C2)ccc1OCCCCOc1cc2c(cc1OC)C(=O)N1CCC[C@H]1C=N2 (stereo not given in full) | 0.192 | 0.367 |
| N#Cc1ccc(NC(=O)Nc2ccc(Oc3ccc(NC(=O)Nc4ccc(C#N)cc4)cc3)cc2)cc1 | 0.764 | 7.53 |
| COc1ccc(-c2c(C#N)c(N)nc3c2CCS(=O)(=O)c2ccccc2-3)cc1 | – | > 100 |
| O=C(Cc1ccccc1)NN1C(=O)/C(=C\c2ccc([N+](=O)[O-])cc2)SC1=Nc1ccccc1 | – | > 100 |

tested on: CAKI-1 renal; test: NCI tumour cell line growth inhibition, 48 h

| Structure (SMILES) | GI50 [µM] | TGI [µM] |
| --- | --- | --- |
| COc1cc(C2=NOC(c3cc(OC)c(OC)c(OC)c3)C2)ccc1OCCCCOc1cc2c(cc1OC)C(=O)N1CCC[C@H]1C=N2 (stereo not given in full) | 0.245 | 0.631 |
| N#Cc1ccc(NC(=O)Nc2ccc(Oc3ccc(NC(=O)Nc4ccc(C#N)cc4)cc3)cc2)cc1 | 20.8 | > 100 |
| COc1ccc(-c2c(C#N)c(N)nc3c2CCS(=O)(=O)c2ccccc2-3)cc1 | – | > 100 |
| Nc1cc(N)c2nc(-c3ccccc3)c(Nc3ccc(Cl)c(Cl)c3)nc2c1 | 13.5 | 29.6 |

tested on: DU-145 prostate; test: NCI tumour cell line growth inhibition, 48 h

| Structure (SMILES) | GI50 [µM] | TGI [µM] |
| --- | --- | --- |
| COc1cc(C2=NOC(c3cc(OC)c(OC)c(OC)c3)C2)ccc1OCCCCOc1cc2c(cc1OC)C(=O)N1CCC[C@H]1C=N2 (stereo not given in full) | 0.432 | 3.28 |
| N#Cc1ccc(NC(=O)Nc2ccc(Oc3ccc(NC(=O)Nc4ccc(C#N)cc4)cc3)cc2)cc1 | 31.2 | > 100 |
| COc1ccc(-c2c(C#N)c(N)nc3c2CCS(=O)(=O)c2ccccc2-3)cc1 | – | > 100 |
| Nc1cc(N)c2nc(-c3ccccc3)c(Nc3ccc(Cl)c(Cl)c3)nc2c1 | 16.7 | 32.6 |
| O=C(Cc1ccccc1)NN1C(=O)/C(=C\c2ccc([N+](=O)[O-])cc2)SC1=Nc1ccccc1 | – | > 100 |

tested on: HT29 colon; test: NCI tumour cell line growth inhibition, 48 h

| Structure (SMILES) | GI50 [µM] | TGI [µM] |
| --- | --- | --- |
| COc1cc(C2=NOC(c3cc(OC)c(OC)c(OC)c3)C2)ccc1OCCCCOc1cc2c(cc1OC)C(=O)N1CCC[C@H]1C=N2 (stereo not given in full) | 0.358 | > 33.2 |
| N#Cc1ccc(NC(=O)Nc2ccc(Oc3ccc(NC(=O)Nc4ccc(C#N)cc4)cc3)cc2)cc1 | 90 | > 100 |
| COc1ccc(-c2c(C#N)c(N)nc3c2CCS(=O)(=O)c2ccccc2-3)cc1 | – | > 100 |
| O=C(Cc1ccccc1)NN1C(=O)/C(=C\c2ccc([N+](=O)[O-])cc2)SC1=Nc1ccccc1 | – | > 100 |

tested on: HL-60(TB) leukemia; test: NCI tumour cell line growth inhibition, 48 h

| Structure (SMILES) | GI50 [µM] | TGI [µM] |
| --- | --- | --- |
| COc1cc(C2=NOC(c3cc(OC)c(OC)c(OC)c3)C2)ccc1OCCCCOc1cc2c(cc1OC)C(=O)N1CCC[C@H]1C=N2 (stereo not given in full) | 0.309 | 6.5 |
| N#Cc1ccc(NC(=O)Nc2ccc(Oc3ccc(NC(=O)Nc4ccc(C#N)cc4)cc3)cc2)cc1 | 1.17 | 83.8 |
| COc1ccc(-c2c(C#N)c(N)nc3c2CCS(=O)(=O)c2ccccc2-3)cc1 | – | > 100 |
| Nc1cc(N)c2nc(-c3ccccc3)c(Nc3ccc(Cl)c(Cl)c3)nc2c1 | 2.59 | 71.7 |

tested on: SK-OV-3 ovarian; test: NCI tumour cell line growth inhibition, 48 h

| Structure (SMILES) | GI50 [µM] | TGI [µM] |
| --- | --- | --- |
| COc1cc(C2=NOC(c3cc(OC)c(OC)c(OC)c3)C2)ccc1OCCCCOc1cc2c(cc1OC)C(=O)N1CCC[C@H]1C=N2 (stereo not given in full) | 0.446 | 3.81 |
| N#Cc1ccc(NC(=O)Nc2ccc(Oc3ccc(NC(=O)Nc4ccc(C#N)cc4)cc3)cc2)cc1 | 11.1 | 46.3 |
| Nc1cc(N)c2nc(-c3ccccc3)c(Nc3ccc(Cl)c(Cl)c3)nc2c1 | 13.7 | 31.3 |
| O=C(Cc1ccccc1)NN1C(=O)/C(=C\c2ccc([N+](=O)[O-])cc2)SC1=Nc1ccccc1 | – | > 100 |

tested on: PC-3 prostate; test: NCI tumour cell line growth inhibition, 48 h

| Structure (SMILES) | GI50 [µM] | TGI [µM] |
| --- | --- | --- |
| COc1cc(C2=NOC(c3cc(OC)c(OC)c(OC)c3)C2)ccc1OCCCCOc1cc2c(cc1OC)C(=O)N1CCC[C@H]1C=N2 (stereo not given in full) | 0.347 | 3.1 |
| N#Cc1ccc(NC(=O)Nc2ccc(Oc3ccc(NC(=O)Nc4ccc(C#N)cc4)cc3)cc2)cc1 | 25.6 | > 100 |
| COc1ccc(-c2c(C#N)c(N)nc3c2CCS(=O)(=O)c2ccccc2-3)cc1 | – | > 100 |
| Nc1cc(N)c2nc(-c3ccccc3)c(Nc3ccc(Cl)c(Cl)c3)nc2c1 | 3.12 | 15.1 |

tested on: SK-MEL-2 melanoma; test: NCI tumour cell line growth inhibition, 48 h

| Structure (SMILES) | GI50 [µM] | TGI [µM] |
| --- | --- | --- |
| COc1cc(C2=NOC(c3cc(OC)c(OC)c(OC)c3)C2)ccc1OCCCCOc1cc2c(cc1OC)C(=O)N1CCC[C@H]1C=N2 (stereo not given in full) | 0.241 | 0.612 |
| N#Cc1ccc(NC(=O)Nc2ccc(Oc3ccc(NC(=O)Nc4ccc(C#N)cc4)cc3)cc2)cc1 | 22.4 | 88.9 |
| COc1ccc(-c2c(C#N)c(N)nc3c2CCS(=O)(=O)c2ccccc2-3)cc1 | – | > 100 |
| Nc1cc(N)c2nc(-c3ccccc3)c(Nc3ccc(Cl)c(Cl)c3)nc2c1 | 2.32 | 19.1 |
| O=C(Cc1ccccc1)NN1C(=O)/C(=C\c2ccc([N+](=O)[O-])cc2)SC1=Nc1ccccc1 | – | > 100 |

tested on: HS 578T breast; test: NCI tumour cell line growth inhibition, 48 h

| Structure (SMILES) | GI50 [µM] | TGI [µM] |
| --- | --- | --- |
| COc1cc(C2=NOC(c3cc(OC)c(OC)c(OC)c3)C2)ccc1OCCCCOc1cc2c(cc1OC)C(=O)N1CCC[C@H]1C=N2 (stereo not given in full) | 0.234 | 0.681 |
| N#Cc1ccc(NC(=O)Nc2ccc(Oc3ccc(NC(=O)Nc4ccc(C#N)cc4)cc3)cc2)cc1 | 7.49 | > 100 |
| COc1ccc(-c2c(C#N)c(N)nc3c2CCS(=O)(=O)c2ccccc2-3)cc1 | – | > 100 |
| Nc1cc(N)c2nc(-c3ccccc3)c(Nc3ccc(Cl)c(Cl)c3)nc2c1 | 18.9 | 51.7 |
| O=C(Cc1ccccc1)NN1C(=O)/C(=C\c2ccc([N+](=O)[O-])cc2)SC1=Nc1ccccc1 | – | > 100 |

tested on: SW-620 colon; test: NCI tumour cell line growth inhibition, 48 h

| Structure (SMILES) | GI50 [µM] | TGI [µM] |
| --- | --- | --- |
| COc1cc(C2=NOC(c3cc(OC)c(OC)c(OC)c3)C2)ccc1OCCCCOc1cc2c(cc1OC)C(=O)N1CCC[C@H]1C=N2 (stereo not given in full) | 0.246 | 0.855 |
| N#Cc1ccc(NC(=O)Nc2ccc(Oc3ccc(NC(=O)Nc4ccc(C#N)cc4)cc3)cc2)cc1 | 26 | > 100 |
| COc1ccc(-c2c(C#N)c(N)nc3c2CCS(=O)(=O)c2ccccc2-3)cc1 | – | > 100 |
| Nc1cc(N)c2nc(-c3ccccc3)c(Nc3ccc(Cl)c(Cl)c3)nc2c1 | 13.3 | 51.8 |
| O=C(Cc1ccccc1)NN1C(=O)/C(=C\c2ccc([N+](=O)[O-])cc2)SC1=Nc1ccccc1 | – | > 100 |

tested on: BT-549 breast; test: NCI tumour cell line growth inhibition, 48 h

| Structure (SMILES) | GI50 [µM] | TGI [µM] |
| --- | --- | --- |
| COc1cc(C2=NOC(c3cc(OC)c(OC)c(OC)c3)C2)ccc1OCCCCOc1cc2c(cc1OC)C(=O)N1CCC[C@H]1C=N2 (stereo not given in full) | 0.156 | 0.385 |
| N#Cc1ccc(NC(=O)Nc2ccc(Oc3ccc(NC(=O)Nc4ccc(C#N)cc4)cc3)cc2)cc1 | 3.48 | 24.2 |

Reference: PubChem BioAssay (NCI)
